Data: ChEMBL document CHEMBL1154412, “In vitro activity of telavancin against gram-positive clinical isolates recently obtained in Europe” (Antimicrob Agents Chemother, 2007)
In brackets after ≈: the same amount, converted by molar mass.

How the values were obtained:
Assay type in all cases: functional
Staphylococcus aureus [1] = assay: Antimicrobial activity against methicillin-susceptible Staphylococcus aureus after 20 to 24 hrs by broth microdilution method
Staphylococcus aureus [2] = assay: Antimicrobial activity against methicillin-resistant Staphylococcus aureus after 20 to 24 hrs by broth microdilution method
Staphylococcus [3] = assay: Antimicrobial activity against methicillin-susceptible coagulase-negative Staphylococcus after 20 to 24 hrs by broth microdilution method
Staphylococcus [4] = assay: Antimicrobial activity against methicillin-resistant coagulase-negative Staphylococcus after 20 to 24 hrs by broth microdilution method
Streptococcus pneumoniae [5] = assay: Antibacterial activity against penicillin-susceptible Streptococcus pneumoniae after 20 to 24 hrs by broth microdilution method
Streptococcus pneumoniae [6] = assay: Antibacterial activity against penicillin-intermediate Streptococcus pneumoniae after 20 to 24 hrs by broth microdilution method
Streptococcus pneumoniae [7] = assay: Antibacterial activity against penicillin-resistant Streptococcus pneumoniae after 20 to 24 hrs by broth microdilution method
[8] = system: Streptococcus sp. 'group A'; assay: Antimicrobial activity against Streptococcus group A after 20 to 24 hrs by broth microdilution method
[9] = system: Streptococcus sp. 'group B'; assay: Antimicrobial activity against Streptococcus group B after 20 to 24 hrs by broth microdilution method
Streptococcus viridans = assay: Antimicrobial activity against Streptococcus viridans after 20 to 24 hrs by broth microdilution method
Enterococcus faecalis [10] = assay: Antimicrobial activity against vancomycin-susceptible Enterococcus faecalis after 20 to 24 hrs by broth microdilution method
Enterococcus faecalis [11] = assay: Antimicrobial activity against vancomycin-resistant Enterococcus faecalis after 20 to 24 hrs by broth microdilution method
Enterococcus faecium [12] = assay: Antibacterial activity against vancomycin-susceptible Enterococcus faecium after 20 to 24 hrs by broth microdilution method
Enterococcus faecium [13] = assay: Antibacterial activity against vancomycin-resistant Enterococcus faecium after 20 to 24 hrs by broth microdilution method

## CNC1C(O)C(OC2C(N)CC(N)C(OC3OC(CN)CCC3N)C2O)OCC1(C)O (stereo not given) [GENTAMICIN C1A]
Staphylococcus aureus [1]
  MIC50: 0.25 mg/L (≈ 0.556 µM)
  MIC90: 1 mg/L (≈ 2.22 µM)
Staphylococcus aureus [2]
  MIC50: 0.5 mg/L (≈ 1.11 µM)
  MIC90: > 16 mg/L
Staphylococcus [3]
  MIC: ≤ 0.06 mg/L
  MIC50: ≤ 0.06 mg/L
  MIC90: ≤ 0.06 mg/L
Staphylococcus [4]
  MIC50: 8 mg/L (≈ 17.8 µM)
  MIC90: > 16 mg/L

## C[C@H]1COc2c(N3CCN(C)CC3)c(F)cc3c(=O)c(C(=O)O)cn1c23.C[C@H]1COc2c(N3CCN(C)CC3)c(F)cc3c(=O)c(C(=O)O)cn1c23.O [LEVOFLOXACIN]
Streptococcus pneumoniae [5]
  MIC50: 0.5 mg/L
  MIC90: 1 mg/L
Streptococcus pneumoniae [6]
  MIC50: 0.5 mg/L
  MIC90: 1 mg/L
Streptococcus pneumoniae [7]
  MIC50: 0.5 mg/L
  MIC90: 4 mg/L
[8]
  MIC50: 0.5 mg/L
  MIC90: 0.5 mg/L
[9]
  MIC50: 0.5 mg/L
  MIC90: 1 mg/L
Streptococcus viridans
  MIC50: 0.5 mg/L
  MIC90: 1 mg/L

## CC(=O)NC[C@H]1CN(c2ccc(N3CCOCC3)c(F)c2)C(=O)O1 [LINEZOLID]
Staphylococcus aureus [1]
  MIC50: 2 mg/L (≈ 5.93 µM)
  MIC90: 2 mg/L (≈ 5.93 µM)
Staphylococcus aureus [2]
  MIC50: 2 mg/L (≈ 5.93 µM)
  MIC90: 2 mg/L (≈ 5.93 µM)
Staphylococcus [3]
  MIC: 1 mg/L (≈ 2.96 µM)
  MIC50: 1 mg/L (≈ 2.96 µM)
  MIC90: 2 mg/L (≈ 5.93 µM)
Staphylococcus [4]
  MIC50: 2 mg/L (≈ 5.93 µM)
  MIC90: 2 mg/L (≈ 5.93 µM)
Enterococcus faecalis [10]
  MIC50: 2 mg/L (≈ 5.93 µM)
  MIC90: 2 mg/L (≈ 5.93 µM)
Enterococcus faecalis [11]
  MIC50: 2 mg/L (≈ 5.93 µM)
  MIC90: 2 mg/L (≈ 5.93 µM)
Enterococcus faecium [12]
  MIC50: 2 mg/L (≈ 5.93 µM)
  MIC90: 2 mg/L (≈ 5.93 µM)
Enterococcus faecium [13]
  MIC50: 2 mg/L (≈ 5.93 µM)
  MIC90: 2 mg/L (≈ 5.93 µM)
Streptococcus pneumoniae [5]
  MIC50: 1 mg/L (≈ 2.96 µM)
  MIC90: 1 mg/L (≈ 2.96 µM)
Streptococcus pneumoniae [6]
  MIC50: 1 mg/L (≈ 2.96 µM)
  MIC90: 1 mg/L (≈ 2.96 µM)
Streptococcus pneumoniae [7]
  MIC50: 1 mg/L (≈ 2.96 µM)
  MIC90: 1 mg/L (≈ 2.96 µM)
[9]
  MIC50: 1 mg/L (≈ 2.96 µM)
  MIC90: 1 mg/L (≈ 2.96 µM)
Streptococcus viridans
  MIC50: 1 mg/L (≈ 2.96 µM)
  MIC90: 1 mg/L (≈ 2.96 µM)

## Cc1onc(-c2ccccc2)c1C(=O)N[C@@H]1C(=O)N2[C@@H]1SC(C)(C)[C@@H]2C(=O)O [OXACILLIN]
Staphylococcus aureus [1]
  MIC50: 0.25 mg/L (≈ 0.623 µM)
  MIC90: 0.5 mg/L (≈ 1.25 µM)
Staphylococcus aureus [2]
  MIC50: > 4 mg/L
  MIC90: > 4 mg/L
Staphylococcus [3]
  MIC50: 0.12 mg/L (≈ 0.299 µM)
  MIC90: 0.12 mg/L (≈ 0.299 µM)
Staphylococcus [4]
  MIC50: > 4 mg/L
  MIC90: > 4 mg/L

## CC[C@H]1OC(=O)[C@H](C)C(=O)[C@H](C)[C@@H](O[C@@H]2O[C@H](C)C[C@H](N(C)C)[C@H]2O)[C@](C)(OC)C[C@@H](C)C(=O)[C@H](C)[C@H]2N(CCCCn3cnc(-c4cccnc4)c3)C(=O)O[C@]12C [TELITHROMYCIN]
Staphylococcus aureus [1]
  MIC50: 0.12 mg/L (≈ 0.148 µM)
  MIC90: 0.12 mg/L (≈ 0.148 µM)
Staphylococcus aureus [2]
  MIC50: 0.12 mg/L (≈ 0.148 µM)
  MIC90: > 8 mg/L
Staphylococcus [3]
  MIC50: 0.06 mg/L (≈ 0.0739 µM)
  MIC90: 0.5 mg/L (≈ 0.616 µM)
Staphylococcus [4]
  MIC50: 0.12 mg/L (≈ 0.148 µM)
  MIC90: > 8 mg/L
Streptococcus pneumoniae [5]
  MIC50: 0.008 mg/L (≈ 0.00985 µM)
  MIC90: 0.008 mg/L (≈ 0.00985 µM)
Streptococcus pneumoniae [6]
  MIC50: 0.008 mg/L (≈ 0.00985 µM)
  MIC90: 0.25 mg/L (≈ 0.308 µM)
Streptococcus pneumoniae [7]
  MIC50: 0.015 mg/L (≈ 0.0185 µM)
  MIC90: 0.03 mg/L (≈ 0.0369 µM)
[8]
  MIC50: 0.015 mg/L (≈ 0.0185 µM)
  MIC90: 0.015 mg/L (≈ 0.0185 µM)
[9]
  MIC50: 0.015 mg/L (≈ 0.0185 µM)
  MIC90: 0.015 mg/L (≈ 0.0185 µM)
Streptococcus viridans
  MIC50: 0.008 mg/L (≈ 0.00985 µM)
  MIC90: 0.12 mg/L (≈ 0.148 µM)

## CN(C)[C@@H]1C(O)=C(C(N)=O)C(=O)[C@@]2(O)C(O)=C3C(=O)c4c(O)cccc4[C@@](C)(O)[C@H]3C[C@@H]12 [TETRACYCLINE]
Streptococcus pneumoniae [5]
  MIC50: 0.12 mg/L (≈ 0.27 µM)
  MIC90: 0.25 mg/L (≈ 0.563 µM)
Streptococcus pneumoniae [6]
  MIC50: 0.25 mg/L (≈ 0.563 µM)
  MIC90: > 8 mg/L
Streptococcus pneumoniae [7]
  MIC50: 0.25 mg/L (≈ 0.563 µM)
[8]
  MIC: 0.12 mg/L (≈ 0.27 µM)
  MIC50: 0.12 mg/L (≈ 0.27 µM)
  MIC90: > 8 mg/L
[9]
  MIC50: > 8 mg/L
  MIC90: > 8 mg/L
Streptococcus viridans
  MIC50: 0.5 mg/L (≈ 1.13 µM)
  MIC90: > 8 mg/L

## CN[C@H](CC(C)C)C(=O)N[C@H]1C(=O)N[C@@H](CC(N)=O)C(=O)N[C@H]2C(=O)N[C@H]3C(=O)N[C@H](C(=O)N[C@H](C(=O)O)c4cc(O)cc(O)c4-c4cc3ccc4O)[C@H](O)c3ccc(c(Cl)c3)Oc3cc2cc(c3O[C@@H]2O[C@H](CO)[C@@H](O)[C@H](O)[C@H]2O[C@H]2C[C@](C)(N)[C@H](O)[C@H](C)O2)Oc2ccc(cc2Cl)[C@H]1O [VANCOMYCIN]
Staphylococcus aureus [1]
  MIC50: 0.5 mg/L (≈ 0.345 µM)
  MIC90: 1 mg/L (≈ 0.69 µM)
Staphylococcus aureus [2]
  MIC50: 1 mg/L (≈ 0.69 µM)
  MIC90: 1 mg/L (≈ 0.69 µM)
Staphylococcus [3]
  MIC50: 1 mg/L (≈ 0.69 µM)
  MIC90: 2 mg/L (≈ 1.38 µM)
Staphylococcus [4]
  MIC50: 1 mg/L (≈ 0.69 µM)
  MIC90: 2 mg/L (≈ 1.38 µM)
Enterococcus faecalis [10]
  MIC50: 2 mg/L (≈ 1.38 µM)
  MIC90: 2 mg/L (≈ 1.38 µM)
Enterococcus faecalis [11]
  MIC50: 512 mg/L (≈ 353 µM)
  MIC90: > 512 mg/L
Enterococcus faecium [12]
  MIC50: 1 mg/L (≈ 0.69 µM)
  MIC90: 1 mg/L (≈ 0.69 µM)
Enterococcus faecium [13]
  MIC50: 512 mg/L (≈ 353 µM)
  MIC90: 512 mg/L (≈ 353 µM)
Streptococcus pneumoniae [5]
  MIC: 0.25 mg/L (≈ 0.173 µM)
  MIC50: 0.25 mg/L (≈ 0.173 µM)
  MIC90: 0.5 mg/L (≈ 0.345 µM)
Streptococcus pneumoniae [6]
  MIC: 0.25 mg/L (≈ 0.173 µM)
  MIC50: 0.25 mg/L (≈ 0.173 µM)
  MIC90: 0.5 mg/L (≈ 0.345 µM)
Streptococcus pneumoniae [7]
  MIC: 0.25 mg/L (≈ 0.173 µM)
  MIC50: 0.25 mg/L (≈ 0.173 µM)
  MIC90: 0.5 mg/L (≈ 0.345 µM)
[8]
  MIC: 0.25 mg/L (≈ 0.173 µM)
  MIC50: 0.25 mg/L (≈ 0.173 µM)
  MIC90: 0.5 mg/L (≈ 0.345 µM)
[9]
  MIC50: 0.5 mg/L (≈ 0.345 µM)
  MIC90: 0.5 mg/L (≈ 0.345 µM)
Streptococcus viridans
  MIC50: 0.5 mg/L (≈ 0.345 µM)
  MIC90: 1 mg/L (≈ 0.69 µM)
